Reference: patent US20260356860A1, “2-SUBSTITUTED 3,4A,5,7,8,8A-HEXAHYDRO-4H-THIOPYRANO[4,3-DJPYRIMIDIN-4-ONES FOR WOUND TREATMENT” (priority 2022, published 2026)
pIC50: −log10 of the molar value.

Legend:
[1] = tested on: closed excisional wounds; assay: Closed excisional wound healing study (cosmesis); assay type: in vivo, Yucatan Miniature Swine; conditions: of 8 wounds
Procedure: The test composition in the closed excisional wound and burn studies for compounds without GO-HA (no GO-HA added) was a mixture with an overall concentration of 0.20 to 0.25 mg/mL of the respective compound in serum formulation as follows: compound (4 mg), butylene glycol (0.80 mL), polysorbate 20 (0.40 mL), ultra pure water (18 mL), and hydroxypropyl cellulose (0.12 g).
The test composition in the closed excisional wound and burn studies for compounds with GO-HA (Compound+GO-HA) was a mixture with an overall concentration of 1.0 mg/mL of the respective compound and 0.5 mg/mL of GO-HA in serum formulation as follows: compound (18 mg), PEG 400 (0.8 mL), GO-HA (9 mg), ultra pure water (18 mL), and hydroxypropyl cellulose (0.12 g).
The frequency of wound creation was once on dosing phase day 1. The frequency of dose administration was once on dosing phase days 1, 3, 5, 7, 9, 11, 13, 15, 17, 19, and 21. Each animal had twelve 5 cm×0.5 cm full thickness fusiform(spindle shaped) wound sites, spaced at least 3 cm apart to the appropriate depth and in a staggered pattern to reduce central cross-sectional wound tension.
Once […] was obtained, each wound was sutured closed using non-absorbable suture, the simple interrupted closure technique is shown in FIG. 13. Each wound had 5 simple interrupted sutures with a 0.5 to 1 cm interval between sutures.
Compounds of Formula (I) and controls were applied directly to the wound site in a generous layer evenly over the sutured wound using a sterile applicator as needed. After application, each wound site was covered with suitable sterile dressing materials.
Dressings were changed every dosing phase day at day 3, 5, 7, 9, 11, 13, 15, 17, 19, and 21, and sutures were removed on dosing phase day 15. After dose administration on each dosing day, the wounds were covered with dressings as described above.
All animals were scheduled to be terminated on dosing phase day 22. At termination, the entire wound site (dose site) was collected separately for each site and included at least 0.5 cm margin skin and a depth below the wound bed. […]

[2] = tested on: new porcine skin; assay: Energy peak of healed wound; assay type: in vivo; conditions: day 21; for Energy Peak / Energy Peak, Mean: topical
Procedure: Additional tests were performed including elasticity (Table 12); max force (Table 13); tensile strength (strain) (Table 14); energy peak (Table 15); rete-ridge formation; and collagen organization (plane polarized light) (FIG. 24) of the healed wound sites, described as follows.
A is saline (control), B is serum formulation (vehicle), C is GO-HA (vehicle), D is Compound 1; E is Compound 1+GO-HA; F is Compound 8; G is Compound 8+GO-HA; H is Compound 10; and J is Compound 10+GO-HA.
Energy Peak (N*mm) is the maximum force applied to a material over time. All compounds of Formula (I) tested with or without GO-HA ranged from 5% to 41% improvement in energy peak compared to the saline control. […] The vehicle, GO-HA, provided a 61% improvement in energy peak over the saline control.

[3] = tested on: HEK293 SuperTOPFlash reporter cells, Wnt promoter; assay: HEK CELL Wnt Assay (luciferase reporter); assay type: cell-based; conditions: serial dilutions, with or without 50 ng/mL Wnt3a; 18 h
How it was run: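 Reporter cells were seeded 24 h before dosing with serial dilutions ([…] to 1 nM), with or without 50 ng/mL Wnt3a, and incubated 18 h. Untreated cells served as negative control, with luciferase as read-out.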

## O=c1[nH]c(-c2ccc(-c3ccc(B(O)O)cc3)cc2)nc2c1CSCC2 [Compound 10, (4′-(4-oxo-3,5,7,8-tetrahydro-4H-thiopyrano[4,3-d]pyrimidin-2-yl)-[1,1′-biphenyl]-4-yl)boronic acid]
[1]
  wounds with improved cosmesis / visible appearance than the control: 3 of 8
[2]
  improvement in energy peak compared to the saline control: 41%
  Energy Peak, Mean: 2864.074 N*mm
[2]; individual value 1
  Energy Peak: 3149.241 N*mm
[2]; individual value 2
  Energy Peak: 3038.880 N*mm
[2]; individual value 3
  Energy Peak: 2645.076 N*mm
[2]; individual value 4
  Energy Peak: 2623.098 N*mm
[3]
  pIC50: 8.30

## COC(=O)NCCOC(C)(C)c1ccc(-c2nc3c(c(=O)[nH]2)CSCC3)cc1 [Compound 18, methyl (2-((2-(4-(4-oxo-3,5,7,8-tetrahydro-4H-thiopyrano[4,3-d]pyrimidin-2-yl)phenyl)propan-2-yl)oxy)ethyl)carbamate]
[3]
  pIC50: 8.22

## O=c1[nH]c(-c2ccc(B(O)O)cc2)nc2c1CSCC2 [Compound 1, (4-(4-oxo-3,5,7,8-tetrahydro-4H-thiopyrano[4,3-d]pyrimidin-2-yl)phenyl)boronic acid]
[1]
  wounds with improved cosmesis / visible appearance than the control: 7 of 8
[2]; individual value 1
  Energy Peak: 3084.657 N*mm
[2]; individual value 2
  Energy Peak: 2356.435 N*mm
[2]; individual value 3
  Energy Peak: 1240.242 N*mm
[2]; individual value 4
  Energy Peak: 1885.046 N*mm
[2]
  Energy Peak, Mean: 2141.595 N*mm
[3]
  pIC50: 5.70

## CC(C)(OCCO)c1ccc(-c2nc3c(c(=O)[nH]2)CSCC3)cc1 [Compound 8, 2-(4-(2-(2-hydroxyethoxy)propan-2-yl)phenyl)-3,5,7,8-tetrahydro-4H-thiopyrano[4,3-d]pyrimidin-4-one]
[1]
  wounds with improved cosmesis / visible appearance than the control: 2 of 8
[2]
  improvement in energy peak compared to the saline control: 29%
  Energy Peak, Mean: 2856.897 N*mm
[2]; individual value 1
  Energy Peak: 2946.121 N*mm
[2]; individual value 2
  Energy Peak: 5124.987 N*mm
[2]; individual value 3
  Energy Peak: 2632.780 N*mm
[2]; individual value 4
  Energy Peak: 2286.458 N*mm
[2]; individual value 5
  Energy Peak: 1294.14 N*mm
[3]
  pIC50: 8.36

## O=c1[nH]c(-c2ccc(-c3ccc(Br)nc3)cc2)nc2c1CSCC2 [Compound 7, 2-(4-(6-bromopyridin-3-yl)phenyl)-3,5,7,8-tetrahydro-4H-thiopyrano [4,3-d]pyrimidin-4-one]
[3]
  pIC50: 7.77
